Reference: article PMC10150354, “Linearization of the Brevicidine and Laterocidine Lipopeptides Yields Analogues That Retain Full Antibacterial Activity” (Journal of Medicinal Chemistry, 2023)
Converted amounts (≈) assume the structure as drawn. Where a SMILES comes first, the peptide text is derived from it. [ ]: non-standard residue; d: D form. The star is where a group is joined. ξ: configuration not given here. Octanoyl(7-Me) = CC(C)CCCCCC(=O)*; Hexanoyl(4ξ-Me) = CCC(C)CCC(=O)*; dOrn = NCCC[C@@H](N)C(=O)O; Orn = NCCC[C@H](N)C(=O)O; Dap = NC[C@H](N)C(=O)O

Legend:
[1] = tested on: K. pneumoniae ATCC 13883; format: cell-based, Klebsiella pneumoniae; conditions: microbroth dilution per CLSI, MHB, 18 h at 37 °C, visual inspection, three technical replicates
Experimental: (§1) Linear laterocidine (LL-OH, 4) and linear brevicidine (LB-OH, 5) were first synthesized by Fmoc SPPS, starting from 2-chlorotrityl (2-CT) chloride resin. The antibacterial activity of these peptides was then compared to brevicidine (1) and laterocidine (2) using minimum inhibitory concentration (MIC)/microbroth dilution assays (Table 1). The MICs of all peptides were determined against a panel of Gram-negative and Gram-positive ESKAPE pathogens. Additionally, a strain of E. coli carrying the mcr-1 gene was included in the panel. The mcr-1 gene is a transferrable plasmid that confers resistance against colistin, a last-resort antibiotic for Gram-negative infections, by reducing the overall negative charge of lipopolysaccharide (LPS) through modification of lipid A with phosphoethanolamine. The propensity for cationic antibiotics to bind to the cell membrane is therefore reduced. This gene has been observed in more than 27 bacterial species over six continents.[26] The spread of the mcr-1 gene could render colistin ineffectual; therefore, novel antibacterials are urgently required to overcome this form of resistance.
(§2) All minimum inhibitory concentrations (MICs) were determined according to Clinical and Laboratory Standards Institute (CLSI) guidelines. Blood agar plates were inoculated with glycerol stocks of E. coli ATCC 25922, K. pneumoniae ATCC 13883, A. baumannii ATCC 17961, P. aeruginosa PAO1, and S. aureus USA300. The inoculated agar plates were then incubated for 16 h at 37 °C. Individually grown colonies were subsequently used to inoculate 5 mL aliquots of TSB that were then incubated at 37 °C with shaking at 220 rpm. E. coli 25922 MCR-1 glycerol stock was used to inoculate 5 mL of TSB supplemented with kanamycin that was then incubated for 16 h at 37 °C with shaking at 220 rpm. The next day the culture was diluted 100-fold in TSB supplemented with kanamycin and incubated at 37 °C with shaking at 220 rpm. In parallel, the lipopeptide antibiotics DMSO stocks to be assessed were serially diluted with MHB in polypropylene 96-well plates (50 μL in each well). Colistin sulfate stocks were dissolved in water before being diluted with MHB. Aliquots of the inoculated TSB were incubated until an OD600 of around 0.5 was reached. The bacterial suspensions were then diluted with MHB (2 × 10^5 CFU/mL) and added to the microplates containing the test compounds (50 μL to each well). The well plates were sealed with an adhesive membrane and after 18 h of incubation at 37 °C with shaking at 600 rpm, the wells were visually inspected for bacterial growth. MIC values reported are based on three technical replicates and defined as the lowest concentration of the compound that prevented visible growth of bacteria.

[2] = tested on: S. aureus USA300; format: cell-based, Staphylococcus aureus; conditions: microbroth dilution per CLSI, MHB, 18 h at 37 °C, visual inspection, three technical replicates
Experimental: as §1, §2

[3] = tested on: E. coli ATCC 25922; format: cell-based, Escherichia coli; conditions: for Antibacterial activity (MIC) E. coli ATCC 25922: microbroth dilution per CLSI, MHB, 18 h at 37 °C, visual inspection, three technical replicates; for MIC (µg/mL) against E. coli (ATCC 25922): (Supplement 2)
Experimental: as §1, §2

[4] = tested on: E. coli (MCR-1); format: cell-based, Escherichia coli; conditions: microbroth dilution per CLSI, MHB, 18 h at 37 °C, visual inspection, three technical replicates, E. coli 25922 carrying mcr-1
Experimental: as §1, §2

[5] = tested on: A. baumannii ATCC 17961; format: cell-based, Acinetobacter baumannii; conditions: microbroth dilution per CLSI, MHB, 18 h at 37 °C, visual inspection, three technical replicates
Experimental: as §1, §2

[6] = tested on: P. aeruginosa PAO1; format: cell-based, Pseudomonas aeruginosa; conditions: microbroth dilution per CLSI, MHB, 18 h at 37 °C, visual inspection, three technical replicates
Experimental: as §1, §2

Compound	Antibacterial activity (MIC) K. pneumoniae ATCC 13883 [1] [µg/mL]	Antibacterial activity (MIC) S. aureus USA300 [2] [µg/mL]	Antibacterial activity (MIC) E. coli ATCC 25922 [3] [µg/mL]	Antibacterial activity (MIC) E. coli (MCR-1) [4] [µg/mL]	Antibacterial activity (MIC) A. baumannii ATCC 17961 [5] [µg/mL]	Antibacterial activity (MIC) P. aeruginosa PAO1 [6] [µg/mL]	MIC (µg/mL) against E. coli (ATCC 25922) [3] [µg/mL]
CC[C@H](C)[C@H](NC(=O)[C@@H](NC(=O)[C@H](Cc1c[nH]c2ccccc12)NC(=O)[C@@H](CCCN)NC(=O)CNC(=O)[C@H](CCCN)NC(=O)[C@@H](CCCN)NC(=O)[C@@H](C)NC(=O)[C@@H](Cc1ccc(O)cc1)NC(=O)[C@@H](CO)NC(=O)CCCCCC(C)C)[C@@H](C)O)C(=O)N[C@@H](CC(N)=O)C(=O)NCC(=O)NCC(N)=O [LL(D-Ala3)-NH2 (31)] ({Octanoyl(7-Me)}-[dS][dY][dA][dOrn][Orn]G[dOrn]WTINGG-NH2)	>32	>32	>32	>32	>32	>32	–
CC[C@H](C)[C@H](NC(=O)[C@@H](NC(=O)[C@H](Cc1c[nH]c2ccccc12)NC(=O)[C@@H](CCCN)NC(=O)CNC(=O)[C@H](CCCN)NC(=O)[C@@H](CCCN)NC(=O)[C@@H](Cc1c[nH]c2ccccc12)NC(=O)[C@@H](Cc1ccc(O)cc1)NC(=O)[C@@H](CO)NC(=O)CCCCCC(C)C)[C@@H](C)O)C(N)=O [Δ11–13LL-NH2 (12)] ({Octanoyl(7-Me)}-[dS][dY][dW][dOrn][Orn]G[dOrn]WTI-NH2)	2	32	4	4	4	4	–
CCC(C)CCC(=O)N[C@H](CC(N)=O)C(=O)N[C@H](Cc1ccc(O)cc1)C(=O)N[C@H](Cc1c[nH]c2ccccc12)C(=O)N[C@H](CCCN)C(=O)N[C@@H](CCCN)C(=O)NCC(=O)N[C@H](CCCN)C(=O)N[C@@H](Cc1c[nH]c2ccccc12)C(=O)N[C@@H](CC(C)C)C(=O)N[C@H](C(=O)NCC(N)=O)[C@@H](C)CC (stereo partly shown) [Δ12LB (Leu9)-NH2 (53)] ({Hexanoyl(4ξ-Me)}-[dN][dY][dW][dOrn][Orn]G[dOrn]WLIG-NH2)	4	>32	4	4	4	8	8 (≈ 5.47 µM)
CCC(C)CCC(=O)N[C@H](CC(N)=O)C(=O)N[C@H](Cc1ccc(O)cc1)C(=O)N[C@H](Cc1c[nH]c2ccccc12)C(=O)N[C@H](CCCN)C(=O)N[C@@H](CCCN)C(=O)NCC(=O)N[C@H](CCCN)C(=O)N[C@@H](Cc1c[nH]c2ccccc12)C(=O)N[C@H](C(=O)N[C@H](C(=O)NCC(N)=O)[C@@H](C)CC)[C@@H](C)O (stereo partly shown) [Δ12LB-NH2 (9)] ({Hexanoyl(4ξ-Me)}-[dN][dY][dW][dOrn][Orn]G[dOrn]WTIG-NH2)	8	>32	8	16	8	4	–
CCC(C)CCC(=O)N[C@H](CC(N)=O)C(=O)N[C@H](Cc1ccc(O)cc1)C(=O)N[C@H](Cc1c[nH]c2ccccc12)C(=O)N[C@H](CCCN)C(=O)N[C@@H](CCCN)C(=O)NCC(=O)N[C@H](CCCN)C(=O)N[C@@H](Cc1c[nH]c2ccccc12)C(=O)N[C@H](C(=O)N[C@@H](C)C(=O)NCC(=O)N[C@@H](CO)C(N)=O)[C@@H](C)O (stereo partly shown) [LB(Ala10)-NH2 (26)] ({Hexanoyl(4ξ-Me)}-[dN][dY][dW][dOrn][Orn]G[dOrn]WTAGS-NH2)	–	–	–	–	–	–	>32
CCC(C)CCC(=O)N[C@H](CC(N)=O)C(=O)N[C@H](C)C(=O)N[C@H](Cc1c[nH]c2ccccc12)C(=O)N[C@H](CCCN)C(=O)N[C@@H](CCCN)C(=O)NCC(=O)N[C@H](CCCN)C(=O)N[C@@H](Cc1c[nH]c2ccccc12)C(=O)N[C@H](C(=O)N[C@H](C(=O)NCC(=O)N[C@@H](CO)C(N)=O)[C@@H](C)CC)[C@@H](C)O (stereo partly drawn) [LB(D-Ala2)-NH2 (18)] ({Hexanoyl(4ξ-Me)}-[dN][dA][dW][dOrn][Orn]G[dOrn]WTIGS-NH2)	–	–	–	–	–	–	>32
CCC(C)CCC(=O)N[C@H](CC(N)=O)C(=O)N[C@H](Cc1ccc(O)cc1)C(=O)N[C@H](C)C(=O)N[C@H](CCCN)C(=O)N[C@@H](CCCN)C(=O)NCC(=O)N[C@H](CCCN)C(=O)N[C@@H](Cc1c[nH]c2ccccc12)C(=O)N[C@H](C(=O)N[C@H](C(=O)NCC(=O)N[C@@H](CO)C(N)=O)[C@@H](C)CC)[C@@H](C)O (stereo partly drawn) [LB(D-Ala3)-NH2 (19)] ({Hexanoyl(4ξ-Me)}-[dN][dY][dA][dOrn][Orn]G[dOrn]WTIGS-NH2)	–	–	–	–	–	–	>32
CCC(C)CCC(=O)N[C@H](CC(N)=O)C(=O)N[C@H](Cc1ccc(O)cc1)C(=O)N[C@H](Cc1c[nH]c2ccccc12)C(=O)N[C@H](CCCN)C(=O)N[C@@H](CCCN)C(=O)NCC(=O)N[C@H](C)C(=O)N[C@@H](Cc1c[nH]c2ccccc12)C(=O)N[C@H](C(=O)N[C@H](C(=O)NCC(=O)N[C@@H](CO)C(N)=O)[C@@H](C)CC)[C@@H](C)O (stereo partly drawn) [LB(D-Ala7)-NH2 (23)] ({Hexanoyl(4ξ-Me)}-[dN][dY][dW][dOrn][Orn]G[dA]WTIGS-NH2)	–	–	–	–	–	–	>32
CC[C@H](C)[C@H](NC(=O)[C@H](CN)NC(=O)[C@H](Cc1c[nH]c2ccccc12)NC(=O)[C@@H](CCCN)NC(=O)CNC(=O)[C@H](CCCN)NC(=O)[C@@H](CCCN)NC(=O)[C@@H](Cc1c[nH]c2ccccc12)NC(=O)[C@@H](Cc1ccc(O)cc1)NC(=O)[C@@H](CO)NC(=O)CCCCCC(C)C)C(=O)N[C@@H](CC(N)=O)C(=O)NCC(=O)NCC(N)=O [LL(Dap9)-NH2 (52)] ({Octanoyl(7-Me)}-[dS][dY][dW][dOrn][Orn]G[dOrn]W[Dap]INGG-NH2)	32	>32	8	8	16	–	8 (≈ 4.98 µM)
CCC(C)CCC(=O)N[C@H](CC(N)=O)C(=O)N[C@H](Cc1ccc(O)cc1)C(=O)N[C@H](Cc1c[nH]c2ccccc12)C(=O)N[C@H](CCCN)C(=O)N[C@@H](CCCN)C(=O)NCC(=O)N[C@H](CCCN)C(=O)N[C@@H](C)C(=O)N[C@H](C(=O)N[C@H](C(=O)NCC(=O)N[C@@H](CO)C(N)=O)[C@@H](C)CC)[C@@H](C)O (stereo partly shown) [LB(Ala8)-NH2 (24)] ({Hexanoyl(4ξ-Me)}-[dN][dY][dW][dOrn][Orn]G[dOrn]ATIGS-NH2)	–	–	–	–	–	–	>32
CCC(C)CCC(=O)N[C@H](CC(N)=O)C(=O)N[C@H](Cc1ccc(O)cc1)C(=O)N[C@H](Cc1c[nH]c2ccccc12)C(=O)N[C@H](CCCN)C(=O)N[C@@H](C)C(=O)NCC(=O)N[C@H](CCCN)C(=O)N[C@@H](Cc1c[nH]c2ccccc12)C(=O)N[C@H](C(=O)N[C@H](C(=O)NCC(=O)N[C@@H](CO)C(N)=O)[C@@H](C)CC)[C@@H](C)O (stereo partly shown) [LB(Ala5)-NH2 (21)] ({Hexanoyl(4ξ-Me)}-[dN][dY][dW][dOrn]AG[dOrn]WTIGS-NH2)	–	–	–	–	–	–	>32
